Test results taken from PMC10540511 (Cellular and molecular life sciences : CMLS, 2023).
Read-outs that look alike come from different tables or passages of the source.

Assays:
[1] = target: T1, CBM98 (BoGH13ASus CBM98) (Bacteroides ovatus, UniProt A0ABU3ISA0); assay: isothermal titration calorimetry; assay type: binding; settings: read-out: Kd (μM) ± SD; 25 °C, 20 mM HEPES pH 7.0, 100 mM NaCl
T1 sequence (A0ABU3ISA0 22-143): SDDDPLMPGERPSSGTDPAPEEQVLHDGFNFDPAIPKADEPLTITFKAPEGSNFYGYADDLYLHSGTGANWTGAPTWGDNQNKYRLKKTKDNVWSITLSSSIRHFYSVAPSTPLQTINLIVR

[2] = target: T2, CBM98-CBM48 (BoGH13ASus CBM98-CBM48) (Bacteroides ovatus, UniProt A0ABU3ISA0); assay: isothermal titration calorimetry; assay type: binding; settings: read-out: Kd (μM) ± SD, 25 °C, 20 mM HEPES pH 7.0, 100 mM NaCl
T2 sequence (A0ABU3ISA0 22-296): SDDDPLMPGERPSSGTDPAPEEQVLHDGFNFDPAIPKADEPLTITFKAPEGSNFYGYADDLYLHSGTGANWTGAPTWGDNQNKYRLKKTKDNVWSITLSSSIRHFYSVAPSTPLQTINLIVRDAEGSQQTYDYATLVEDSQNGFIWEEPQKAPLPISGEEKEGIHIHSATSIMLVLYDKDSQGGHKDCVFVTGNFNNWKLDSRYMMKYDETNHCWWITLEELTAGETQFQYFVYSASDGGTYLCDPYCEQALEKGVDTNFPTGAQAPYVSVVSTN

[3] = standard-volume instrument, 25 μM protein

Kd [1] | Kd [2] | Kd [2, 3] | SMILES
32 ± 9.8 µM | 33 ± 9.9 µM |  | OC[C@H]1O[C@H](O[C@H]2[C@H](O)[C@@H](O)[C@@H](O[C@H]3[C@H](O)[C@@H](O)[C@@H](O[C@H]4[C@H](O)[C@@H](O)[C@@H](O[C@H]5[C@H](O)[C@@H](O)[C@@H](O[C@H]6[C@H](O)[C@@H](O)[C@@H](O[C@H]7[C@H](O)[C@@H](O)C(O)O[C@@H]7CO)O[C@@H]6CO)O[C@@H]5CO)O[C@@H]4CO)O[C@@H]3CO)O[C@@H]2CO)[C@H](O)[C@@H](O)[C@@H]1O (stereo partly drawn) [G7, maltoheptaose]
42 ± 13 µM |  | 43 ± 18 µM | OC[C@H]1O[C@@H]2O[C@H]3[C@H](O)[C@@H](O)[C@@H](O[C@H]4[C@H](O)[C@@H](O)[C@@H](O[C@H]5[C@H](O)[C@@H](O)[C@@H](O[C@H]6[C@H](O)[C@@H](O)[C@@H](O[C@H]7[C@H](O)[C@@H](O)[C@@H](O[C@H]1[C@H](O)[C@H]2O)O[C@@H]7CO)O[C@@H]6CO)O[C@@H]5CO)O[C@@H]4CO)O[C@@H]3CO [αCD, α-cyclodextrin]
26 ± 3.8 µM |  | 21 ± 1.4 µM | OC[C@H]1O[C@@H]2O[C@H]3[C@H](O)[C@@H](O)[C@@H](O[C@H]4[C@H](O)[C@@H](O)[C@@H](O[C@H]5[C@H](O)[C@@H](O)[C@@H](O[C@H]6[C@H](O)[C@@H](O)[C@@H](O[C@H]7[C@H](O)[C@@H](O)[C@@H](O[C@H]8[C@H](O)[C@@H](O)[C@@H](O[C@H]1[C@H](O)[C@H]2O)O[C@@H]8CO)O[C@@H]7CO)O[C@@H]6CO)O[C@@H]5CO)O[C@@H]4CO)O[C@@H]3CO [βCD, β-cyclodextrin]
